The source of these data is the supplement of paper PMC6045584.

Compound in one assay: CO[C@H]1C[C@@H]2CC[C@@H](C)[C@@](O)(O2)C(=O)C(=O)N2CCCC[C@H]2C(=O)O[C@H]([C@H](C)C[C@@H]2CC[C@@H](OCCO)[C@H](OC)C2)CC(=O)[C@H](C)/C=C(\C)[C@@H](O)[C@@H](OC)C(=O)[C@H](C)C[C@H](C)/C=C/C=C/C=C/1C [EVEROLIMUS]
The experiment in a line: surviving fraction relative to DMSO-only wells; higher = less growth inhibition. The note with it: exposure time: 5 days. The procedure, abridged:
(§1)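 Viability values are CellTiter-Glo luminescence readings, given as surviving fraction against the median of DMSO-only wells. The readings were taken after 10 minutes at room temperature, following five days of continuous exposure to inhibitors at 0.5, 1, 5, 10, 50, 100, 500 and 1000 nM that began 24 hours after log-phase tumour cell lines were seeded at 250–500 cells per well in 384-well plates. Every line was screened three times and kept only if replicate Pearson r >0.7 and median Z' >0.3.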

Compound in a further assay: O=C(O)CC[C@H]1CC[C@@](c2cc(F)ccc2F)(S(=O)(=O)c2ccc(Cl)cc2)CC1 [MK0752]
Described as above. The note with it: exposure time: 5 days. The procedure, abridged: as §1

± gives the standard deviation of the averaged measurements.

For 22RV1 PROSTATE, the surviving fraction with EVEROLIMUS (0.5 nM) came to 0.788 ± 0.065; in the assay with EVEROLIMUS (1 nM), 0.588 ± 0.14; with EVEROLIMUS (5 nM) it was 0.452 ± 0.043; with EVEROLIMUS (10 nM), 0.375 ± 0.031; in the assay with EVEROLIMUS (50 nM), 0.515 ± 0.24; with EVEROLIMUS (100 nM), 0.374 ± 0.032. Besides, the surviving fraction with EVEROLIMUS (500 nM) amounted to 0.365 ± 0.061; with EVEROLIMUS (1000 nM) it was 0.375 ± 0.028; with MK0752 (0.5 nM) it was 1.08 ± 0.069; in the assay with MK0752 (1 nM) it was 1.1 ± 0.012; with MK0752 (5 nM), 1.09 ± 0.021; with MK0752 (10 nM), 1.04 ± 0.058. Further, the surviving fraction in the assay with MK0752 (50 nM) is 1.07 ± 0.092; with MK0752 (100 nM), 1.11 ± 0.07; with MK0752 (500 nM) it was 1.09 ± 0.044; with MK0752 (1000 nM), 1.08 ± 0.026.
93VU HEADNECK: the surviving fraction stood at 0.953 ± 0.098 in the assay with EVEROLIMUS (0.5 nM); 0.905 ± 0.076 with EVEROLIMUS (1 nM); 0.865 ± 0.024 in the assay with EVEROLIMUS (5 nM); 0.841 ± 0.065 in the assay with EVEROLIMUS (10 nM); 0.85 ± 0.051 with EVEROLIMUS (50 nM); 0.767 ± 0.11 with EVEROLIMUS (100 nM). Further, the surviving fraction with EVEROLIMUS (500 nM) turned out to be 0.706 ± 0.027; in the assay with EVEROLIMUS (1000 nM) it was 0.649 ± 0.049; with MK0752 (0.5 nM), 1.19 ± 0.15; with MK0752 (1 nM), 1.25 ± 0.054; in the assay with MK0752 (5 nM), 1.14 ± 0.041; with MK0752 (10 nM), 1.23 ± 0.086. Besides, the surviving fraction came out at 1.16 ± 0.016 with MK0752 (50 nM), 1.23 ± 0.088 in the assay with MK0752 (100 nM), 1.13 ± 0.051 with MK0752 (500 nM) and 1.18 ± 0.1 with MK0752 (1000 nM).
Consider 143B BONE, for which the surviving fraction in the assay with EVEROLIMUS (0.5 nM) was 0.954 ± 0.032; in the assay with EVEROLIMUS (1 nM) it was 0.948 ± 0.022; with EVEROLIMUS (5 nM), 0.846 ± 0.03; in the assay with EVEROLIMUS (10 nM), 0.824 ± 0.018; in the assay with EVEROLIMUS (50 nM), 0.8355 ± 0.00071; with EVEROLIMUS (100 nM), 0.825 ± 0.029. In addition, the surviving fraction was 0.793 ± 0.057 with EVEROLIMUS (500 nM); 0.827 ± 0.096 with EVEROLIMUS (1000 nM); 1 ± 0.028 with MK0752 (0.5 nM); 1.04 ± 0.03 with MK0752 (1 nM); 1.022 ± 0.0064 with MK0752 (5 nM); 1.05 ± 0.015 with MK0752 (10 nM). Further, the surviving fraction with MK0752 (50 nM) worked out at 1.02 ± 0.044; with MK0752 (100 nM) it was 1.05 ± 0.026; with MK0752 (500 nM), 1.01 ± 0.02; with MK0752 (1000 nM), 1.06 ± 0.023.
Regarding A549 LUNG, the surviving fraction with EVEROLIMUS (0.5 nM) came to 0.962 ± 0.022; in the assay with EVEROLIMUS (1 nM), 0.927 ± 0.018; in the assay with EVEROLIMUS (5 nM), 0.8767 ± 0.0076; in the assay with EVEROLIMUS (10 nM), 0.842 ± 0.017; in the assay with EVEROLIMUS (50 nM) it was 0.855 ± 0.041; with EVEROLIMUS (100 nM), 0.826 ± 0.048. In addition, the surviving fraction stood at 0.777 ± 0.0096 in the assay with EVEROLIMUS (500 nM); 0.759 ± 0.058 with EVEROLIMUS (1000 nM); 1.02 ± 0.053 with MK0752 (0.5 nM); 1.03 ± 0.043 with MK0752 (1 nM); 1.06 ± 0.059 with MK0752 (5 nM); 1.02 ± 0.062 with MK0752 (10 nM). In addition, the surviving fraction in the assay with MK0752 (50 nM) is 1.06 ± 0.054; with MK0752 (100 nM), 1.09 ± 0.061; in the assay with MK0752 (500 nM), 1.07 ± 0.063; with MK0752 (1000 nM) it was 1.1 ± 0.038.
Consider ASKA SYNOVIAL, for which the surviving fraction in the assay with EVEROLIMUS (0.5 nM) stood at 1 ± 0.077; with EVEROLIMUS (1 nM), 0.93 ± 0.1; in the assay with EVEROLIMUS (5 nM), 0.787 ± 0.085; in the assay with EVEROLIMUS (10 nM), 0.62 ± 0.049; in the assay with EVEROLIMUS (50 nM), 0.612 ± 0.022; with EVEROLIMUS (100 nM), 0.576 ± 0.051. For the same test system, the surviving fraction in the assay with EVEROLIMUS (500 nM) was determined as 0.531 ± 0.036; in the assay with EVEROLIMUS (1000 nM) it was 0.577 ± 0.04; in the assay with MK0752 (0.5 nM), 1.12 ± 0.023; in the assay with MK0752 (1 nM) it was 1.16 ± 0.02; in the assay with MK0752 (5 nM) it was 1.24 ± 0.038; with MK0752 (10 nM) it was 1.22 ± 0.025. For the same test system, the surviving fraction with MK0752 (50 nM) stood at 1.22 ± 0.11; with MK0752 (100 nM), 1.23 ± 0.1; with MK0752 (500 nM), 1.14 ± 0.087; in the assay with MK0752 (1000 nM), 1.14 ± 0.017.
BT20 BREAST: the surviving fraction in the assay with EVEROLIMUS (0.5 nM) amounted to 0.595 ± 0.042; in the assay with EVEROLIMUS (1 nM), 0.46 ± 0.037; with EVEROLIMUS (5 nM), 0.394 ± 0.041; in the assay with EVEROLIMUS (10 nM) it was 0.378 ± 0.042; in the assay with EVEROLIMUS (50 nM), 0.353 ± 0.015; with EVEROLIMUS (100 nM), 0.369 ± 0.02. Also, the surviving fraction with EVEROLIMUS (500 nM) turned out to be 0.34 ± 0.018; with EVEROLIMUS (1000 nM), 0.374 ± 0.018; with MK0752 (0.5 nM) it was 1.16 ± 0.11; with MK0752 (1 nM), 1.03 ± 0.11; with MK0752 (5 nM), 1.09 ± 0.12; with MK0752 (10 nM), 1.1 ± 0.17. For the same test system, the surviving fraction in the assay with MK0752 (50 nM) came to 1.03 ± 0.17; with MK0752 (100 nM) it was 0.941 ± 0.19; with MK0752 (500 nM), 0.914 ± 0.096; in the assay with MK0752 (1000 nM), 0.829 ± 0.19.
Take BT549 BREAST: the surviving fraction with EVEROLIMUS (0.5 nM) stood at 0.569 ± 0.026; with EVEROLIMUS (1 nM), 0.531 ± 0.061; with EVEROLIMUS (5 nM), 0.415 ± 0.032; in the assay with EVEROLIMUS (10 nM) it was 0.499 ± 0.079; in the assay with EVEROLIMUS (50 nM) it was 0.4507 ± 0.0023; with EVEROLIMUS (100 nM) it was 0.418 ± 0.05. The surviving fraction was 0.365 ± 0.017 in the assay with EVEROLIMUS (500 nM); 0.356 ± 0.027 with EVEROLIMUS (1000 nM); 1.08 ± 0.14 with MK0752 (0.5 nM); 1.09 ± 0.14 with MK0752 (1 nM); 1.1 ± 0.18 with MK0752 (5 nM); 1.11 ± 0.15 with MK0752 (10 nM). The surviving fraction with MK0752 (50 nM) is 0.986 ± 0.1; with MK0752 (100 nM), 1.04 ± 0.07; with MK0752 (500 nM), 0.89 ± 0.095; with MK0752 (1000 nM), 1.03 ± 0.075.
Turning to CADOES1 SOFT TISSUE, the surviving fraction with EVEROLIMUS (0.5 nM) was 0.842 ± 0.1; with EVEROLIMUS (1 nM), 0.74 ± 0.072; with EVEROLIMUS (5 nM), 0.529 ± 0.052; with EVEROLIMUS (10 nM) it was 0.472 ± 0.11; with EVEROLIMUS (50 nM), 0.309 ± 0.036; with EVEROLIMUS (100 nM) it was 0.344 ± 0.098. The surviving fraction is 0.259 ± 0.017 in the assay with EVEROLIMUS (500 nM); 0.268 ± 0.04 with EVEROLIMUS (1000 nM); 0.976 ± 0.09 with MK0752 (0.5 nM); 1.02 ± 0.13 with MK0752 (1 nM); 0.994 ± 0.073 in the assay with MK0752 (5 nM); 0.953 ± 0.054 with MK0752 (10 nM). The surviving fraction with MK0752 (50 nM) came out at 1.02 ± 0.14; in the assay with MK0752 (100 nM), 0.849 ± 0.041; with MK0752 (500 nM), 0.801 ± 0.086; with MK0752 (1000 nM), 0.931 ± 0.11.
